Measurements as given in patent US20230276792A1, “SELECTIVE HERBICIDES BASED ON SUBSTITUTED ISOXAZOLIN CARBOXAMIDES AND CLOQUINTOCET-MEXYL” (Bayer Aktiengesellschaft, priority 2020, published 2023).

Legend:
Format in all cases: in vivo
[1] = system: spring wheat, TRZAS Triso; assay: Tank-mix post-emergence crop damage, herbicide with and without safener cloquintocet-mexyl, greenhouse; set-up: key to Reduction [Difference]: percentage points of damage: damage without safener minus damage with safener
Description: (§1) Seeds of crops (spring wheat, TRZAS; spring barley, HORVS; maize, ZEAMA) were placed in sandy loam soil in peat pots, covered with soil and cultivated in a greenhouse under good growth conditions. Two to three weeks after sowing, the test plants were treated at the 1 to 3-leaf stage. The herbicide/safener active compound combinations according to the invention, formulated as wettable powders or emulsion concentrates, and, in parallel tests, the correspondingly formulated individual active compounds were sprayed onto the green parts of the plants in various dosages using an amount of water of 300 l/ha (converted).
(§2) The pots were returned under good growing conditions in a glasshouse and a visual assessment of herbicidal effects was made at intervals from 1 to 3 weeks after herbicide application (DAT=days after treatment). Assessment was on a percentage basis in comparison with untreated control plants (0%=no injury, 100%=complete kill).
(§3) Reduction [Difference]=herbicide damage without safener−herbicide damage with safener
(§4) Reduction [%]=(Reduction [Difference]*100)/herbicide damage without safener
(§5) b) Plant Species, Variety: TRZAS Triso, Safener (SAF): Cloquintocet-Mexyl

[2] = system: spring barley, HORVS Montoya; assay: Safener seed treatment, post-emergence herbicide application, crop damage; set-up: key to Reduction [Difference]: % crop damage without safener minus % damage with safener; conditions: for HER effect + SAF / Reduction [Difference] / Reduction [%]: cloquintocet-mexyl 0, 5 g a.i./kg seed
Text: (§6) For safener seed treatment trials, sufficient seed amounts of the respective crops (spring wheat (TRZAS); spring barley (HORVS)) were weighed into screw cap glass bottles with a minimum volume trice of the seeds.
(§7) As a first step, specified safeners formulated as wettable powder (WP) or wettable granules (WG) were weighed out for the required dosages (g a.i./kg seed), corresponding to the seed amounts. The safener amounts were mixed with a coloured slurry blind formulation type, pre-diluted with milk at 3.5% fat rate (25 mgs slurry formulation plus 2 ml milk per 10 grams of seed). A tube roller was used for coating. The solutions were gradually pipetted each on the rotating seeds followed by coating for min. 3 hours until all liquid had been soaked up by the seeds. Thereafter, the coated seeds were put flat on open trays for drying over night at room temperature.
(§8) Treated seeds were then placed into pots (7 cm diameter) on the surface of sandy loam, pressed down, flat covered with additional soil and finally covered with sandy soil, also pressed down, watered, and kept under good growth conditions in a greenhouse, until the plants had reached 2-leaf-stage (BBCH 12).
(§9) At that stage, post-emergence application of the specified herbicides was done on: • a) pot sets containing plants with safener-coated seeds as described above, • b) as a reference, pot sets of plants without seed treatment.
(§10) The herbicides were formulated as wettable powder (WP). Equivalent to the spray area, compound amounts were weighed out and diluted related to the water application rate (300 l/ha) to an aqueous suspension plus additive (1 l/ha MERO). Dosage related equivalents were conventionally sprayed on trays with the potted plants.
(§11) After application, the test plants were kept under good growth conditions in a greenhouse. Assessment timings were 10 and 21 days after treatment (DAT) with the herbicide, by visual scoring of the crop damage in % (comparison of untreated with treated plants, either sprayed only with herbicide or with herbicide on plants with treated seeds).
as §3, §4
(§12) a) Plant Species, Variety: HORVS Montoya, Safener (SAF): Cloquintocet-Mexyl

[3] = system: spring wheat, TRZAS Triso; assay: as above; conditions: for HER effect + SAF [%] / Reduction [%]: cloquintocet-mexyl 0, 5 g a.i./kg seed; for HER effect [%]: without safener
Text: as §6, §7, §8, §9, §10, §11, §3, §4, §5

[4] = system: spring barley, HORVS Montoya; assay: Tank-mix post-emergence crop damage, herbicide with and without safener cloquintocet-mexyl, greenhouse; set-up: key to Reduction [Difference]: damage without safener − damage with safener, % points (0–100% scale); conditions: cloquintocet-mexyl 100 g a.i./ha
Description: as §1, §2, §3, §4, §12

[5] = 21 DAT, HER dose 16 g a.i./ha, cloquintocet-mexyl 100 g a.i./ha
[6] = 21 DAT, HER dose 8 g a.i./ha, cloquintocet-mexyl 50 g a.i./ha
[7] = 10 DAT, HER dose 32 g a.i./ha, cloquintocet-mexyl 100 g a.i./ha
[8] = 10 DAT, HER dose 8 g a.i./ha, cloquintocet-mexyl 50 g a.i./ha
[9] = 10 DAT, HER dose 2 g a.i./ha, cloquintocet-mexyl 50 g a.i./ha
[10] = 21 DAT, HER dose 32 g a.i./ha, cloquintocet-mexyl 100 g a.i./ha
[11] = 21 DAT, HER dose 1, 5 g a.i./ha, cloquintocet-mexyl 50 g a.i./ha
[12] = 21 DAT, HER dose 1, 5 g a.i./ha

## CC1(C(=O)NC2C=CC(C(=O)OCCCl)C2)CC(c2cc(F)cc(F)c2)=NO1 (mixture of isomers) [Example 1.47]
[1]; 21 DAT, HER dose 4 g a.i./ha, cloquintocet-mexyl 50 g a.i./ha
  HER effect + SAF: 0%
[1]; [5]
  HER effect + SAF: 5%
  Reduction [%]: 94%
  Reduction [Difference]: 75
[2]; 21 DAT, HER dose 12 g a.i./ha
  HER effect + SAF: 0%
[2]; 21 DAT, HER dose 12 g a.i./ha, without safener
  HER effect: 20%
[2]; 21 DAT, HER dose 48 g a.i./ha
  Reduction [Difference]: 75
[3]; 21 DAT, HER dose 4 g a.i./ha
  HER effect + SAF [%]: 10%
  HER effect [%]: 30%
[3]; 21 DAT, HER dose 16 g a.i./ha
  HER effect + SAF [%]: 10%
  HER effect [%]: 80%

## C=CC1(C(=O)NC2CC=C(C(=O)OC)C2)CC(c2cc(F)cc(F)c2)=NO1 (mixture of isomers) [Example 1.60]
[4]; 21 DAT, HER dose 8 g a.i./ha
  HER effect + SAF: 0%
  Reduction [Difference]: 80
[1]; [6]
  HER effect + SAF: 70%
  Reduction [%]: 25%
  Reduction [Difference]: 23
[1]; 21 DAT, HER dose 8 g a.i./ha, without safener
  HER effect: 93%
[3]; 21 DAT, HER dose 8 g a.i./ha
  HER effect + SAF [%]: 10%
  HER effect [%]: 93%
[3]; 21 DAT, HER dose 32 g a.i./ha
  HER effect + SAF [%]: 10%
  HER effect [%]: 95%

## C=CC1(C(=O)NC2COC(C(=O)OC)C2)CC(c2cc(C)cc(F)c2)=NO1 (mixture of isomers) [Example 1.71]
[4]; 21 DAT, HER dose 32 g a.i./ha
  Reduction [%]: 57%
  Reduction [Difference]: 40
[1]; [7]
  HER effect + SAF: 10%
  Reduction [%]: 88%
  Reduction [Difference]: 75
[3]; 10 DAT, HER dose 8 g a.i./ha
  HER effect + SAF [%]: 0%
  HER effect [%]: 50%
[3]; 10 DAT, HER dose 32 g a.i./ha
  HER effect + SAF [%]: 0%
  HER effect [%]: 85%

## CC1(C(=O)NC2COC(C(=O)OCc3ccccc3)C2)CC(c2cccc(F)c2)=NO1 (mixture of isomers) [Example 1.79]
[1]; 10 DAT, HER dose 24 g a.i./ha, cloquintocet-mexyl 100 g a.i./ha
  Reduction [Difference]: 50
[2]; 10 DAT, HER dose 24 g a.i./ha
  Reduction [%]: 86%
  Reduction [Difference]: 60
[3]; 10 DAT, HER dose 6 g a.i./ha
  HER effect + SAF [%]: 0%
  HER effect [%]: 30%
[3]; 10 DAT, HER dose 24 g a.i./ha
  HER effect + SAF [%]: 10%
  HER effect [%]: 50%

## COCCOC(=O)C1C=CC(NC(=O)C2(C(F)(F)F)CC(c3cc(F)cc(C#N)c3)=NO2)C1 (stereo not shown) [Example 1.2]
[4]; 10 DAT, HER dose 8 g a.i./ha
  HER effect + SAF: 10%
[1]; [8]
  HER effect + SAF: 70%
  Reduction [%]: 22%
[2]; 10 DAT, HER dose 8 g a.i./ha
  HER effect + SAF: 10%
[3]; 10 DAT, HER dose 8 g a.i./ha
  HER effect + SAF [%]: 0%
  HER effect [%]: 90%
[3]; 10 DAT, HER dose 32 g a.i./ha
  HER effect + SAF [%]: 10%
  HER effect [%]: 90%

## COCCOC(=O)C1C=CC(NC(=O)C2(C)CC(c3cc(Cl)cc(C#N)c3)=NO2)C1 (stereo not shown) [Example 1.5]
[1]; [9]
  HER effect + SAF: 20%
  Reduction [%]: 60%
  Reduction [Difference]: 30
[2]; 21 DAT, HER dose 8 g a.i./ha
  HER effect + SAF: 10%
  Reduction [%]: 80%
  Reduction [Difference]: 40
[2]; 21 DAT, HER dose 32 g a.i./ha
  HER effect + SAF: 20%
  Reduction [%]: 75%
  Reduction [Difference]: 60
[3]; 21 DAT, HER dose 8 g a.i./ha
  HER effect + SAF [%]: 10%
  HER effect [%]: 90%
[3]; 21 DAT, HER dose 32 g a.i./ha
  HER effect + SAF [%]: 30%
  HER effect [%]: 95%

## COC(=O)C1C=CC(NC(=O)C2(C)CC(c3cccc(F)c3)=NO2)C1 (stereo not shown) [Example 1.20]
[4]; 21 DAT, HER dose 32 g a.i./ha
  Reduction [%]: 88%
  Reduction [Difference]: 70
[1]; [7]
  Reduction [%]: 80%
[2]; 21 DAT, HER dose 32 g a.i./ha
  Reduction [%]: 88%
  Reduction [Difference]: 70
[3]; 10 DAT, HER dose 8 g a.i./ha
  HER effect + SAF [%]: 0%
  HER effect [%]: 20%
[3]; 10 DAT, HER dose 32 g a.i./ha
  HER effect + SAF [%]: 0%
  HER effect [%]: 50%

## C=CC1(C(=O)NC2C=CC(C(=O)O)C2)CC(c2cc(F)cc(F)c2)=NO1 (stereo not shown) [Example 1.58]
[1]; [6]
  HER effect + SAF: 50%
  Reduction [%]: 46%
  Reduction [Difference]: 43
[1]; [10]
  HER effect + SAF: 60%
  Reduction [%]: 35%
  Reduction [Difference]: 33
[3]; 21 DAT, HER dose 2 g a.i./ha
  HER effect + SAF [%]: 0%
  HER effect [%]: 85%
[3]; 21 DAT, HER dose 8 g a.i./ha
  HER effect + SAF [%]: 10%
  HER effect [%]: 93%
[3]; 21 DAT, HER dose 32 g a.i./ha
  HER effect + SAF [%]: 20%
  Reduction [%]: 78%
  HER effect [%]: 93%

## C=CC1(C(=O)NC2C=C(C(=O)OCC#N)OC2)CC(c2cc(F)cc(F)c2)=NO1 (stereo not shown) [Example 1.91]
[1]; [11]
  Reduction [%]: 71%
  Reduction [Difference]: 50
[1]; 21 DAT, HER dose 24 g a.i./ha, cloquintocet-mexyl 100 g a.i./ha
  Reduction [%]: 75%
[3]; [12]
  HER effect + SAF [%]: 20%
  Reduction [%]: 71%
  HER effect [%]: 70%
[3]; 21 DAT, HER dose 6 g a.i./ha
  HER effect + SAF [%]: 30%
  HER effect [%]: 90%
[3]; 21 DAT, HER dose 24 g a.i./ha
  HER effect + SAF [%]: 20%
  Reduction [%]: 75%
  HER effect [%]: 80%
